# From patent US11065211B2, “Isoxylitones mediated neurogenesis” (priority 2018, dated 2021)
# Columns and labels:
# Type in all cases: cell-based, rat
# [1] = tested on: GFAP; assay: Immunocytochemical analysis of primary cultured and cocultured cells; conditions: 24 h
# Method: (§1) Immuncytochemical analysis was performed for differentiation studies of primary cultures of cortex, hippocampus, and co-cultures (CoCul) in absence of growth factors and serum free medium.
# (§2) The cultured cells of cortex, hippocampus, and co-cultured cells in the presence of serum free medium were plated in chamber slides at the density of 20,000 cells/mL and treated with a proliferative dose of isoxylitones, i.e., 150 μg/ml for 24 hrs at 37° C. and 5% CO2 to let the cells adhere on the bottom surface of the slide. Following incubation, the media was refreshed and the cells were immunolabelled as mentioned in table #2.1.
# (§3) For immunostaining, the media was removed; cells were washed gently with 1 mL of 1×PBS. After removing 1×PBS, 4% formaldehyde was added and the slides were incubated for 20 minutes at room temperature to fix the cells. The fixative was aspirated followed by a three times rinse with 1 mL of 1×PBS. After washing, the blocking buffer (BSA having 3% normal goat serum, 0.2% tween-20 and 0.3% of Triton X-100 in 10×PBS) was added and the slides were kept at room temperature for an hour. Then, the cells were washed gently three times with 1×PBS on an orbital shaker and 300 μL of primary antibodies (dilution mentioned in table #2.1) were added to each slide and incubated overnight at 4° C. Following incubation, the cells were washed gently in PBS three times (5 minutes each wash) on an orbital shaker. Next secondary antibody (Table #2.1) in 3% normal serum or BSA was added to their respective chamber and incubated for 1 hour at room temperature in dark. Following incubation, the slides were washed with 1×PBS.
# (§4) Diluted Dapi (1:1000) was added into each slide to counter stain the nucleus. After rinsing twice with distilled water, images were captured using the Nikon 90i with fluorescence microscopes (Nikon. Tokyo, Japan) equipped with Nuance Software version 3.1 (Caliper Life Sciences. Hopkinton, Mass.). The magnification used was 20×.
# (§5) For quantification studies, ImageJ software (National Institutes of Health, USA) was used to digitalized the images. This software provides multiple imaging system data comparisons taking densitometry in consideration. Briefly, 5 different regions were randomly selected and the fluorescence intensity was quantified in cells and the background intensity of each image was subtracted from it, the residual particles were measured to represent expression of relevant protein. Cells or fields were counted and percentage intensity of protein expression was measured and means percentage intensity was calculated. Data from three individual experiments was obtained and expressed as means±SEM.
# [2] = tested on: nestin; assay: as above; conditions: 24 h
# Method: as §1, §2, §3, §4, §5
# [3] = tested on: Calretinin (CR); assay: as above; conditions: vs control
# Method: as §1, §2, §3, §4, §5
# [4] = tested on: neurogenin; assay: as above
# Method: as §1, §2, §3, §4, §5
# [5] = tested on: Neuro D1; assay: as above
# Method: as §1, §2, §3, §4, §5
# [6] = tested on: tubulin; assay: as above
# Method: as §1, §2, §3, §4, §5
# [7] = tested on: hypoxic hippocampal cells; assay: In-vitro model of hypoxic pre-conditioning; conditions: 2 h hypoxia then treatment at various concentrations, vs positive control hypoxic cells, FIG. 7
# Method: In-vitro model of hypoxic cells was established by hypoxia chamber, which contain 5% carbon dioxide, 1% oxygen and 94% nitrogen. Isolated cortical and hippocampal cells from 1-2 days old rat pups were cultured in 75 cm flask in DMEM medium, after culturing cells were plated on 96 well plate at 7000-8000 viable cells per well and incubated in hypoxia chamber for 2 hour at 37° C. for hypoxic conditioning or oxygen deprivation. Following hypoxic shock, medium was replaced with fresh complete medium. Only cells without hypoxia were kept in normal condition as a control group while untreated hypoxic cells were kept as a positive control cells. Following two hours hypoxia the treatment of isoxylitones at various doses was given to hypoxic cells and MTT assay was used to determine the viability of cells in all treated and control cells. The absorbance of the plate was read by spectrophotometer at 570 nm wavelength.
smiles,measurement,setting,value
CC(=O)C=C1C=C(C)CC(C)(C)C1 (mixture of isomers) [isoxylitones],GFAP expression (immunofluorescence),"[1]; (A) cortical and (B) CoCul-CTX cells, vs vehicle control, FIG. 10",prominent increase of GFAP expression
same,"GFAP immunochemistry, intensity of images","[1]; (A) hippocampal and (B) CoCul-HP cells, 150 μg/ml, vs control, FIG. 11",No significant difference in intensity
same,nestin expression (immunofluorescence),"[2]; (A) CTX and (B) CoCul-CTX cells, vs control, FIG. 9",no significant difference
same,nestin expression (immunofluorescence),"[2]; (A) hippocampal and (B) CoCul-HP cells, 150 μg/ml, vs untreated control, FIG. 8",up-regulation of nestin protein expression
same,Calretinin (CR) fluorescent intensity,"[3]; (A) cortical and (B) CoCul-CTX cells, FIG. 14",prominent increase in the fluorescent intensity of calretinin
same,CR expression (immunoreactivity),"[3]; (A) hippocampal and (B) CoCul-HP cells, FIG. 15",significant increase in CR expression
same,neurogenin expression (immunostaining),"[4]; (A) cortical and (B) CoCul-CTX cells, FIG. 18",prominent neurogenin expression
same,neurogenin expression (immunostaining),"[4]; (A) hippocampal and (B) CoCul-HP cells, 24 h, vs control P<0.001, FIG. 19",elevated neurogenin expression
same,Neuro D1 protein expression,"[5]; (A) cortical and (B) CoCul-CTX cells, 150 μg/ml, 24 h, vs control, FIG. 16",significant upregulation
same,Neuro D1 immunofluorescence intensity,"[5]; (A) hippocampal and (B) CoCul-HP cells, FIG. 17",significant up-regulation in immunofluorescence of NeuroD1 intensity
same,tubulin expression (immunofluorescence),"[6]; (A) cortical and (B) CoCul-CTX cells, P<0.01, FIG. 12",significant upregulation of tubulin
same,tubulin expression (immunofluorescence),"[6]; (A) hippocampal and (B) CoCul-HP cells, 150 μg/ml, 24 h, vs control, FIG. 13",significant upregulation
same,recovery of hypoxic cells (phase-contrast morphology),[7],Recovery of hypoxic cells clearly observed
